According to patent US20060135773A1, “Trisubstituted nitrogen modulators of tyrosine phosphatases” (priority 2004, published 2006):

target: T1, PTP-1B (Homo sapiens, UniProt P18031); assay: pNPP tyrosine phosphatase inhibition assay, PTP-1B; assay type: biochemical; conditions: pNPP assay, PTP-1B; read-out: Activity Class (IC50 ranges)
T1 construct: PTP-1B (purified, 1 mg/mL) as a 1:250 dilution
T1 sequence (P18031 1-321 limits assumed): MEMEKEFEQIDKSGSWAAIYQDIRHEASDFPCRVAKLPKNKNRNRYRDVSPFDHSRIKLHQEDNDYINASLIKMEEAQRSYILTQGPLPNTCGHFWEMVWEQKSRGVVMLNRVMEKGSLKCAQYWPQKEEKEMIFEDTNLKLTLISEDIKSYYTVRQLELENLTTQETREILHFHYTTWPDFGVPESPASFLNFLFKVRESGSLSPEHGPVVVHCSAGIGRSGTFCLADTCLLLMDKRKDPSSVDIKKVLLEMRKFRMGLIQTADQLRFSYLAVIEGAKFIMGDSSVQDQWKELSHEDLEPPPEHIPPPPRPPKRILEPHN
Procedure, shortened: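 Test compounds were screened at two final levels, 31.3 and 10 µM, against 4 µg/mL purified PTP-1B. The substrate was 10 mM p-nitrophenyl phosphate, with incubation for 10 min at 30°C before a K2CO3 quench. Activity was taken from A405.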

| IC50 [nM] | Structure (SMILES) |
| --- | --- |
| < 99 | COc1ccccc1S(=O)(=O)N(Cc1ccc(-c2cccc(C(=O)O)c2)cc1)Cc1ccc(C(F)(F)P(=O)(O)O)c(Cl)c1 [Compound 149, 4′-{[[3-Chloro-4-(difluoro-phosphono-methyl)-benzyl]-(2-methoxy-benzenesulfonyl)-amino]-methyl}-biphenyl-3-carboxylic acid] |
| 250 to 499 | COc1ccccc1S(=O)(=O)N(Cc1ccc(-c2ccc(S(C)(=O)=O)cc2)c(C)c1)Cc1ccc(C(F)(F)P(=O)(O)O)c(Cl)c1 [Compound 151, [(2-Chloro-4-{[(4′-methanesulfonyl-2-methyl-biphenyl-4-ylmethyl)-(2-methoxy-benzenesulfonyl)-amino]-methyl}-phenyl)-difluoro-methyl]-phosphonic acid] |
| 100 to 249 | COc1ccccc1S(=O)(=O)N(Cc1ccc(-c2ccc(CC#N)cc2)cc1)Cc1ccc(C(F)(F)P(=O)(O)O)c(Cl)c1 [Compound 152, [(2-Chloro-4-{[(4′-cyanomethyl-biphenyl-4-ylmethyl)-(2-methoxy-benzenesulfonyl)-amino]-methyl}-phenyl)-difluoro-methyl]-phosphonic acid] |
| 100 to 249 | COc1ccccc1S(=O)(=O)N(Cc1ccc(-c2ccc(Cc3nn[nH]n3)cc2)cc1)Cc1ccc(C(F)(F)P(=O)(O)O)c(Cl)c1 [Compound 153, {[2-Chloro-4-({(2-methoxy-benzenesulfonyl)-[4′-(2H-tetrazol-5-ylmethyl)-biphenyl-4-ylmethyl]-amino}-methyl)-phenyl]-difluoro-methyl}-phosphonic acid] |
| 250 to 499 | N#Cc1cccc(-c2ccc(CN(Cc3ccc(C(F)(F)P(=O)(O)O)c(Cl)c3)S(=O)(=O)c3ccc4ccccc4c3)cc2)c1 [Compound 154, [(2-Chloro-4-{[(3′-cyano-biphenyl-4-ylmethyl)-(naphthalene-2-sulfonyl)-amino]-methyl}-phenyl)-difluoro-methyl]-phosphonic acid] |
| 100 to 249 | COc1ccccc1S(=O)(=O)N(Cc1ccc(-c2ccc(C#N)cc2)cc1)Cc1ccc(C(F)(F)P(=O)(O)O)c(Cl)c1 [Compound 155, [(2-Chloro-4-{[(4′-cyano-biphenyl-4-ylmethyl)-(2-methoxy-benzenesulfonyl)-amino]-methyl}-phenyl)-difluoro-methyl]-phosphonic acid] |
| < 99 | COc1ccccc1S(=O)(=O)N(Cc1ccc(-c2ccc(O)c(C(=O)O)c2)cc1)Cc1ccc(C(F)(F)P(=O)(O)O)c(Cl)c1 [Compound 156, 4′-{[[3-Chloro-4-(difluoro-phosphono-methyl)-benzyl]-(2-methoxy-benzenesulfonyl)-amino]-methyl}-4-hydroxy-biphenyl-3-carboxylic acid] |
| < 99 | O=P(O)(O)C(F)(F)c1ccc(CN(Cc2ccc(-c3cccc(-c4nn[nH]n4)c3)cc2)S(=O)(=O)c2ccc3ccccc3c2)cc1Cl [Compound 158, {[2-Chloro-4-({(naphthalene-2-sulfonyl)-[3′-(2H-tetrazol-5-yl)-biphenyl-4-ylmethyl]-amino}-methyl)-phenyl]-difluoro-methyl}-phosphonic acid] |
| < 99 | COc1ccccc1S(=O)(=O)N(Cc1ccc(-c2ccc(-c3nn[nH]n3)cc2)cc1)Cc1ccc(C(F)(F)P(=O)(O)O)c(Cl)c1 [Compound 159, {[2-Chloro-4-({(2-methoxy-benzenesulfonyl)-[4′-(2H-tetrazol-5-yl)-biphenyl-4-ylmethyl]-amino}-methyl)-phenyl]-difluoro-methyl}-phosphonic acid] |
| 250 to 499 | CCCc1cc(-c2ccc(CN(Cc3ccc(C(F)(F)P(=O)(O)O)c(Cl)c3)S(=O)(=O)c3ccccc3OC)cc2)cc(C(=O)OC)c1O [Compound 160, 4′-{[[3-Chloro-4-(difluoro-phosphono-methyl)-benzyl]-(2-methoxy-benzenesulfonyl)-amino]-methyl}-4-hydroxy-5-propyl-biphenyl-3-carboxylic acid methyl ester] |
| 100 to 249 | COc1ccccc1S(=O)(=O)N(Cc1ccc(-c2cccc(C(N)=O)c2)cc1)Cc1ccc(C(F)(F)P(=O)(O)O)c(Cl)c1 [Compound 161, [(4-{[(3′-Carbamoyl-biphenyl-4-ylmethyl)-(2-methoxy-benzenesulfonyl)-amino]-methyl}-2-chloro-phenyl)-difluoro-methyl]-phosphonic acid] |
| 100 to 249 | N#Cc1cccc(-c2ccc(CN(Cc3ccc(C(F)(F)P(=O)(O)O)c(Cl)c3)S(=O)(=O)c3ccc(F)cc3Cl)cc2)c1 [Compound 162, [(2-Chloro-4-{[(2-chloro-4-fluoro-benzenesulfonyl)-(3′-cyano-biphenyl-4-ylmethyl)-amino]-methyl}-phenyl)-difluoro-methyl]-phosphonic acid] |
| 100 to 249 | N#Cc1cccc(-c2ccc(CN(Cc3ccc(C(F)(F)P(=O)(O)O)c(Cl)c3)S(=O)(=O)c3ccccc3Cl)cc2)c1 [Compound 163, [(2-Chloro-4-{[(2-chloro-benzenesulfonyl)-(3′-cyano-biphenyl-4-ylmethyl)-amino]-methyl}-phenyl)-difluoro-methyl]-phosphonic acid] |
| 2500 to 25000 | COc1ccccc1S(=O)(=O)N(Cc1ccc(C(F)(F)P(=O)(O)O)c(Cl)c1)C(C)c1ccccc1 (centres unmarked) [Compound 166, [(2-Chloro-4-{[(2-methoxy-benzenesulfonyl)-(1-phenyl-ethyl)-amino]-methyl}-phenyl)-difluoro-methyl]-phosphonic acid] |
| 250 to 499 | COc1ccccc1S(=O)(=O)N(Cc1ccc(C(F)(F)P(=O)(O)O)c(Cl)c1)Cc1ccccc1C [Compound 167, [(2-Chloro-4-{[(2-methoxy-benzenesulfonyl)-(2-methyl-benzyl)-amino]-methyl}-phenyl)-difluoro-methyl]-phosphonic acid] |
| 100 to 249 | COc1ccccc1S(=O)(=O)N(Cc1ccc(C(F)(F)P(=O)(O)O)c(Cl)c1)Cc1ccccc1-c1ccccc1 [Compound 168, [(4-{[Biphenyl-2-ylmethyl-(2-methoxy-benzenesulfonyl)-amino]-methyl}-2-chloro-phenyl)-difluoro-methyl]-phosphonic acid] |
| < 99 | O=P(O)(O)C(F)(F)c1ccc(CN(Cc2ccc(-c3cccc(-c4nn[nH]n4)c3)cc2)S(=O)(=O)c2ccc(F)cc2Cl)cc1Cl [Compound 169, {[2-Chloro-4-({(2-chloro-4-fluoro-benzenesulfonyl)-[3′-(2H-tetrazol-5-yl)-biphenyl-4-ylmethyl]-amino}-methyl)-phenyl]-difluoro-methyl}-phosphonic acid] |
| 250 to 499 | COc1ccccc1S(=O)(=O)N(Cc1ccccc1)Cc1ccc(C(F)(F)P(=O)(O)O)c(Cl)c1 [Compound 170, [(4-{[Benzyl-(2-methoxy-benzenesulfonyl)-amino]-methyl}-2-chloro-phenyl)-difluoro-methyl]-phosphonic acid] |
| 2500 to 25000 | COc1ccccc1S(=O)(=O)N(Cc1ccc(C(F)(F)P(=O)(O)O)c(Cl)c1)C(Cc1ccccc1)c1ccccc1 (centres unmarked) [Compound 171, [(2-Chloro-4-{[(1,2-diphenyl-ethyl)-(2-methoxy-benzenesulfonyl)-amino]-methyl}-phenyl)-difluoro-methyl]-phosphonic acid] |

| Structure (SMILES) | IC50 [nM] |
| --- | --- |
| COc1ccccc1S(=O)(=O)N(Cc1ccc(-c2cccc(C#N)c2)cc1)Cc1ccc(C(F)(F)P(=O)(O)OC)c(Cl)c1 [Compound 165, [(2-Chloro-4-{[(3′-cyano-biphenyl-4-ylmethyl)-(2-methoxy-benzenesulfonyl)-amino]-methyl}-phenyl)-difluoro-methyl]-phosphonic acid monomethyl ester] | 2500 to 25000 |
